Measured values reported in ChEMBL document CHEMBL1201862, “PubChem BioAssay data set” (2004).
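48-hour exposure; five concentrations; linearly interpolated endpoints. Here, GI50 denotes the concentration required for 50% inhibition of growth.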 Activity calls are given as the source filed them. Cut-off read from the data, not from the text of the source: active = GI50 up to about 1.1 µM and inactive = higher.

Legend:
Experiment in all cases: NCI tumour cell line growth inhibition, 48 h
[1] = test system: HCT-116
[2] = test system: EKVX
[3] = test system: OVCAR-3
[4] = test system: LOX IMVI
[5] = test system: SF-539
[6] = test system: NCI/ADR-RES
[7] = test system: CAKI-1
[8] = test system: IGROV-1
[9] = test system: MCF7
[10] = test system: OVCAR-5
[11] = test system: U-251
[12] = test system: RPMI-8226
[13] = test system: MDA-N
[14] = test system: CCRF-CEM
[15] = test system: 786-0
[16] = test system: SF-268
[17] = test system: SNB-75
[18] = test system: TK-10
[19] = test system: NCI-H522
[20] = test system: SR

Row | SMILES | GI50 [1] | GI50 [2] | GI50 [3] | GI50 [4] | GI50 [5] | GI50 [6] | GI50 [7] | GI50 [8] | GI50 [9] | GI50 [10] | GI50 [11] | GI50 [12] | GI50 [13] | GI50 [14] | GI50 [15] | GI50 [16] | GI50 [17] | GI50 [18] | GI50 [19] | GI50 [20]
1 | O=C1C2=Cc3ccccc3OC2(O)Oc2cc(O)cc(O)c21 (configuration not stated) | > 100 µM (inactive) | > 100 µM (inactive) | > 10 µM (inactive) | > 100 µM (inactive) | > 100 µM (inactive) | > 100 µM (inactive) | > 100 µM (inactive) | > 100 µM (inactive) | > 100 µM (inactive) | > 100 µM (inactive) | > 100 µM (inactive) | > 100 µM (inactive) | > 100 µM (inactive) | 57.4 µM (inactive) | > 100 µM (inactive) | > 100 µM (inactive) | > 100 µM (inactive) | > 100 µM (inactive) | – | –
2 | CNC(=O)c1ccc(C(=O)NCCCCCN(O)C(=O)CCC(=O)NCCCCCN(O)C(=O)CCC(=O)NCCCCCN(O)C(C)=O)c(O)c1O | 32.9 µM (inactive) | – | 8.57 µM (inactive) | 18.3 µM (inactive) | 29 µM (inactive) | 41.6 µM (inactive) | 55.3 µM (inactive) | 60.4 µM (inactive) | 48.2 µM (inactive) | > 100 µM (inactive) | 33.9 µM (inactive) | 38.5 µM (inactive) | > 100 µM (inactive) | 5 µM (inactive) | 69.3 µM (inactive) | 23.1 µM (inactive) | > 100 µM (inactive) | 78.9 µM (inactive) | 60.1 µM (inactive) | –
3 | COc1ccc(/N=N/c2c(C)c(C#N)c(=S)n(C3OC(CO)C(O)C(O)C3O)c2C)cc1 (configuration not stated) | 31.6 µM (inactive) | – | 34.4 µM (inactive) | 56.4 µM (inactive) | 48.3 µM (inactive) | > 100 µM (inactive) | 56.2 µM (inactive) | 54.1 µM (inactive) | 33 µM (inactive) | > 100 µM (inactive) | 51.5 µM (inactive) | 39.2 µM (inactive) | 30.6 µM (inactive) | 23.7 µM (inactive) | 44.2 µM (inactive) | 45.9 µM (inactive) | 83.6 µM (inactive) | 82 µM (inactive) | – | 23.4 µM (inactive)
4 | CC1(C)[C@@H]2CC[C@]1(C)[C@H](OC(=O)/C=C/c1ccccc1)C2 | 18.4 µM (inactive) | 19.9 µM (inactive) | < 0.01 µM (active) | 21.3 µM (inactive) | 20.7 µM (inactive) | 18.9 µM (inactive) | 20.2 µM (inactive) | 27.7 µM (inactive) | 16.7 µM (inactive) | 19.6 µM (inactive) | 17.7 µM (inactive) | – | 31.3 µM (inactive) | 20.4 µM (inactive) | 18.1 µM (inactive) | 17.3 µM (inactive) | 16.2 µM (inactive) | 36.9 µM (inactive) | 14.6 µM (inactive) | –
5 | CCCn1c(=O)c(N2CCN(c3ccccc3)CC2)nc2sc3ccccc3c21 | > 100 µM (inactive) | > 100 µM (inactive) | > 100 µM (inactive) | > 100 µM (inactive) | > 100 µM (inactive) | > 100 µM (inactive) | > 100 µM (inactive) | > 100 µM (inactive) | > 100 µM (inactive) | > 100 µM (inactive) | > 100 µM (inactive) | – | > 100 µM (inactive) | > 100 µM (inactive) | > 100 µM (inactive) | > 100 µM (inactive) | > 100 µM (inactive) | > 100 µM (inactive) | > 100 µM (inactive) | –
6 | COc1c2cc([N+](=O)[O-])cc1CN(C(=O)C(F)(F)F)CCOCCN(C(=O)C(F)(F)F)C2 | > 100 µM (inactive) | > 100 µM (inactive) | > 100 µM (inactive) | > 100 µM (inactive) | > 100 µM (inactive) | – | > 100 µM (inactive) | > 100 µM (inactive) | > 100 µM (inactive) | > 100 µM (inactive) | > 100 µM (inactive) | – | > 100 µM (inactive) | > 100 µM (inactive) | > 100 µM (inactive) | > 100 µM (inactive) | 69.7 µM (inactive) | > 100 µM (inactive) | > 100 µM (inactive) | –
7 | CCOC(OCC)N1C(=O)C2(C(OCC)OCC)CC3C(OC(=O)N3N)c3cccc1c32 (configuration not stated) | > 100 µM (inactive) | > 100 µM (inactive) | > 100 µM (inactive) | > 100 µM (inactive) | > 100 µM (inactive) | > 100 µM (inactive) | > 100 µM (inactive) | > 100 µM (inactive) | > 100 µM (inactive) | > 100 µM (inactive) | > 100 µM (inactive) | > 100 µM (inactive) | > 100 µM (inactive) | 54.2 µM (inactive) | > 100 µM (inactive) | > 100 µM (inactive) | – | > 100 µM (inactive) | – | > 100 µM (inactive)
8 | CC(=O)c1cc(CC2Cc3cc4c(cc3C2=O)CCC4)cc2c1CCC2 (configuration not stated) | 26.1 µM (inactive) | 37.8 µM (inactive) | 90.2 µM (inactive) | 24 µM (inactive) | 70.5 µM (inactive) | 26.2 µM (inactive) | 90.2 µM (inactive) | > 100 µM (inactive) | 30.8 µM (inactive) | > 100 µM (inactive) | 33.7 µM (inactive) | 10.7 µM (inactive) | – | 24 µM (inactive) | 80 µM (inactive) | 83.9 µM (inactive) | 33.3 µM (inactive) | 38.5 µM (inactive) | 36.9 µM (inactive) | 29.9 µM (inactive)
9 | COC(=O)[C@H](Cc1ccccc1)NC(=O)N1CCCN(C(=O)N[C@@H](Cc2ccccc2)C(=O)OC)CCCN(C(=O)N[C@@H](Cc2ccccc2)C(=O)OC)CCC1 | 20.2 µM (inactive) | 21.8 µM (inactive) | 16.9 µM (inactive) | 15.3 µM (inactive) | – | 30.8 µM (inactive) | 25.5 µM (inactive) | 16.4 µM (inactive) | 18.2 µM (inactive) | 15.7 µM (inactive) | 16.7 µM (inactive) | 32.1 µM (inactive) | 26.1 µM (inactive) | 32.5 µM (inactive) | 17.5 µM (inactive) | 17.5 µM (inactive) | 16.1 µM (inactive) | 22.3 µM (inactive) | 18.9 µM (inactive) | –
10 | CCCCCCCC(=O)N1C2CC3CCC2(CS1(=O)=O)C3(C)C (configuration not stated) | 30.1 µM (inactive) | 37.4 µM (inactive) | > 10 µM (inactive) | – | 16.9 µM (inactive) | – | 20.2 µM (inactive) | 43.2 µM (inactive) | 18.7 µM (inactive) | 44.8 µM (inactive) | 31.3 µM (inactive) | 19.7 µM (inactive) | 26.8 µM (inactive) | 16.5 µM (inactive) | 15.7 µM (inactive) | 35.4 µM (inactive) | 24.7 µM (inactive) | 33.6 µM (inactive) | 19.4 µM (inactive) | 18.6 µM (inactive)
11 | O=c1cc(-c2ccncc2)[nH]c2cc3c(cc12)OCO3 | 97.3 µM (inactive) | > 100 µM (inactive) | > 100 µM (inactive) | – | > 100 µM (inactive) | > 100 µM (inactive) | – | > 100 µM (inactive) | > 100 µM (inactive) | > 100 µM (inactive) | > 100 µM (inactive) | > 100 µM (inactive) | > 100 µM (inactive) | – | 64.6 µM (inactive) | > 100 µM (inactive) | 49.7 µM (inactive) | > 100 µM (inactive) | – | –
12 | O=c1c2cc(Br)cc(Br)c2[nH]c(=S)n1-c1ccc(/N=N/c2ccc(O)c3cccnc23)cc1 | 26.2 µM (inactive) | 38.6 µM (inactive) | 14 µM (inactive) | 24.5 µM (inactive) | 11.5 µM (inactive) | – | 54.3 µM (inactive) | 11.2 µM (inactive) | 12.9 µM (inactive) | 74.5 µM (inactive) | 19.7 µM (inactive) | 33.9 µM (inactive) | 31.4 µM (inactive) | – | 25.7 µM (inactive) | 17.2 µM (inactive) | 29.2 µM (inactive) | 66.1 µM (inactive) | 18.7 µM (inactive) | 3.61 µM (inactive)
13 | CCCC(=O)C1=C(O)C(Cc2c(O)c(C)c(O)c(C(=O)CCC)c2O)=C(O)C(C)(C)C1=O | 12.6 µM (inactive) | > 50 µM (inactive) | > 50 µM (inactive) | 19 µM (inactive) | – | – | > 50 µM (inactive) | 37 µM (inactive) | 21.9 µM (inactive) | 11.9 µM (inactive) | 22.9 µM (inactive) | 17 µM (inactive) | > 50 µM (inactive) | 0.421 µM (active) | > 50 µM (inactive) | 34.8 µM (inactive) | 29.4 µM (inactive) | 30.6 µM (inactive) | – | 14.7 µM (inactive)
14 | O=[N+]([O-])c1cc(C(F)(F)F)ccc1S(=O)(=O)N[C@@H]1CCCC[C@H]1NS(=O)(=O)c1ccc(C(F)(F)F)cc1[N+](=O)[O-] | 3.43 µM (inactive) | 6.5 µM (inactive) | 2.38 µM (inactive) | 1.56 µM (inactive) | 1.81 µM (inactive) | 2.51 µM (inactive) | 2.65 µM (inactive) | 2.31 µM (inactive) | 1.72 µM (inactive) | 56.2 µM (inactive) | 3.37 µM (inactive) | – | 3.63 µM (inactive) | 2.72 µM (inactive) | 3.47 µM (inactive) | 2.49 µM (inactive) | 1.83 µM (inactive) | 11 µM (inactive) | 2.45 µM (inactive) | –
15 | COc1ccccc1C1(c2c(OC)c(=O)c2=O)SCCCS1 | > 100 µM (inactive) | 75.2 µM (inactive) | 86.7 µM (inactive) | 60.3 µM (inactive) | > 100 µM (inactive) | 73.6 µM (inactive) | > 100 µM (inactive) | 47.2 µM (inactive) | > 100 µM (inactive) | 34.4 µM (inactive) | > 100 µM (inactive) | 32 µM (inactive) | > 100 µM (inactive) | 82.6 µM (inactive) | > 100 µM (inactive) | > 100 µM (inactive) | 71.8 µM (inactive) | > 100 µM (inactive) | 27.4 µM (inactive) | –
